Blank lines part the entries; values can stand above or below the compound they belong to.
What was measured:
[1] = tested on: upper airway collapsibility; assay: pig model of obstructive sleep apnea (OSA): collapse of the upper respiratory tract under negative pressure; type: in vivo, German Landrace pigs; set-up: efficacy of the dose on upper airway collapsibility: dose or concentration left out as unconfirmed
Source text: The therapeutic potential of the combination of a TASK1/3 channel blocker with a norepinephrine reuptake inhibitor according to the present invention in sleep apnea can be assessed preclinically in a pig model of obstructive sleep apnea (OSA).
German Landrace pigs are used for the model. The pigs are anaesthetized and tracheotomized. Two tracheal cannulas are inserted into the trachea, one into the rostral part and the other into the caudal part of the trachea. Using a connection piece, the rostral cannula is connected to a tube to the negative pressure device and to the distal tracheal cannula. The distal tracheal cannula is additionally connected to a tube with an open end to atmosphere via a connection piece that served for free tracheal breathing, circumventing the upper airway. By appropriate opening and clamping of those tubes breathing can be switched from nasal breathing to breathing through the caudal tracheal cannula, circumventing the upper airway, and the (isolated) upper airway can be connected to the negative pressure device, causing airflow in the inspiratory direction.
At certain points in time, the collapsibility of the upper respiratory tract is tested by having the pig breathe via the caudal cannula and applying negative pressures of −50, −100 and −150 cm water head (cm H2O) to the upper respiratory tract. This causes the upper respiratory tract to collapse, which manifests itself in an interruption of the airflow and a pressure drop in the tube system. This test is conducted prior to the administration of the test substance and at certain intervals after the administration of the test substance. An appropriately effective test substance can prevent this collapse of the respiratory tract in the inspiratory phase.

[2] = plasma concentrations of atomoxetine in the OSA pig model; type: in vivo, pigs; settings: atomoxetine dose used in the combination (i.v. bolus 20 μg/kg + infusion 12.5 μg/kg/h), FIG. 3
[3] = intranasal 0.3 μg at 0 min, alone, time 0 min (time of administration)
[4] = intranasal 0.3 μg at 0 min, alone, time 10 min
[5] = intranasal 0.3 μg at 0 min, alone, time 30 min
[6] = intranasal 0.3 μg at 0 min, alone, time 60 min
[7] = intranasal 0.3 μg at 0 min, alone, time 90 min
[8] = atomoxetine i.v. bolus 20 μg/kg + infusion 12.5 μg/kg/h for four hours from 0 min, time 0 min (time of administration)
[9] = atomoxetine i.v. bolus 20 μg/kg + infusion 12.5 μg/kg/h for four hours from 0 min, time 10 min
[10] = atomoxetine i.v. bolus 20 μg/kg + infusion 12.5 μg/kg/h for four hours from 0 min, time 30 min
[11] = atomoxetine i.v. bolus 20 μg/kg + infusion 12.5 μg/kg/h for four hours from 0 min, time 60 min
[12] = atomoxetine i.v. bolus 20 μg/kg + infusion 12.5 μg/kg/h for four hours from 0 min, time 90 min (time of nasal application of TASK1/3 channel blocker)

SMILES: COc1ccc(Cl)c(C(=O)N2C3CCC2CN(Cc2c(-c4ccc(C(C)C)cc4)nc4ncccn24)C3)n1 [(3-Chloro-6-methoxypyridin-2-yl)(3-{[2-(4-isopropylphenyl)imidazo[1,2-a]pyrimidin-3-yl]methyl}-3,8-diazabicyclo[3.2.1]oct-8-yl)methanone]
efficacy of the dose on upper airway collapsibility ([1]; TASK1/TASK3 channel blocker alone): non effective dose
Percent pigs without collaps −50 cm H2O, % [1, 3]: 0%
Percent pigs without collaps −50 cm H2O, % [1, 4]: 33%
Percent pigs without collaps −50 cm H2O, % [1, 5]: 0%
Percent pigs without collaps −50 cm H2O, % [1, 6]: 0%
Percent pigs without collaps −50 cm H2O, % [1, 7]: 0%
Percent pigs without collaps −100 cm H2O, % [1, 3]: 0%
Percent pigs without collaps −100 cm H2O, % [1, 4]: 33%
Percent pigs without collaps −100 cm H2O, % [1, 5]: 0%
Percent pigs without collaps −100 cm H2O, % [1, 6]: 0%
Percent pigs without collaps −100 cm H2O, % [1, 7]: 0%
Percent pigs without collaps −150 cm H2O, % [1, 3]: 0%
Percent pigs without collaps −150 cm H2O, % [1, 4]: 0%
Percent pigs without collaps −150 cm H2O, % [1, 5]: 0%
Percent pigs without collaps −150 cm H2O, % [1, 6]: 0%
Percent pigs without collaps −150 cm H2O, % [1, 7]: 0%

plasma concentrations [2]: about 100 nM
SMILES: CNCC[C@@H](Oc1ccccc1C)c1ccccc1 [atomoxetine, Atomoxetine]
inhibition of upper airway collapsibility ([1]; atomoxetine alone, i.v. bolus 20 μg/kg + infusion 12.5 μg/kg/h, 30 min after bolus injection and start of infusion): inhibited only at a negative pressure of −50 and −100 cm head
inhibition of upper airway collapsibility ([1]; atomoxetine alone, i.v. bolus 20 μg/kg + infusion 12.5 μg/kg/h, 60 min after administration): inhibited only at a negative pressure of −50 cm head
upper airway collapsibility ([1]; atomoxetine alone, i.v. bolus 20 μg/kg + infusion 12.5 μg/kg/h, 90 min after bolus injection and start of infusion): induced at all negative pressures
time points at which upper airway collapsibility was inhibited at all three negative pressures of −50, −100 and −150 cm head (cm H2O) in all pigs ([1]; atomoxetine alone, i.v. bolus 20 μg/kg followed by infusion 12.5 μg/kg/h for four hours): at no time point
Percent pigs without collaps −50 cm H2O, % [1, 8]: 0%
Percent pigs without collaps −50 cm H2O, % [1, 9]: 67%
Percent pigs without collaps −50 cm H2O, % [1, 10]: 100%
Percent pigs without collaps −50 cm H2O, % [1, 11]: 100%
Percent pigs without collaps −50 cm H2O, % [1, 12]: 0%
Percent pigs without collaps −100 cm H2O, % [1, 8]: 0%
Percent pigs without collaps −100 cm H2O, % [1, 9]: 0%
Percent pigs without collaps −100 cm H2O, % [1, 10]: 100%
Percent pigs without collaps −100 cm H2O, % [1, 11]: 0%
Percent pigs without collaps −100 cm H2O, % [1, 12]: 0%
Percent pigs without collaps −150 cm H2O, % [1, 8]: 0%
Percent pigs without collaps −150 cm H2O, % [1, 9]: 0%
Percent pigs without collaps −150 cm H2O, % [1, 10]: 0%
Percent pigs without collaps −150 cm H2O, % [1, 11]: 0%
Percent pigs without collaps −150 cm H2O, % [1, 12]: 0%
